Data on 8 molecules can be found in article PMC12155096 (International Journal of Molecular Sciences, 2025).

Targets include human CYP2C19 (Homo sapiens, UniProt P33261); human CYP2C9 (Homo sapiens, UniProt P11712); human CYP2D6 (Homo sapiens, UniProt P10635); CYP3A4 (Homo sapiens, UniProt P08684).
For another data set, the target named is T1, human CYP1A2 (Homo sapiens, UniProt P05177).
T1 sequence (P05177 1-516): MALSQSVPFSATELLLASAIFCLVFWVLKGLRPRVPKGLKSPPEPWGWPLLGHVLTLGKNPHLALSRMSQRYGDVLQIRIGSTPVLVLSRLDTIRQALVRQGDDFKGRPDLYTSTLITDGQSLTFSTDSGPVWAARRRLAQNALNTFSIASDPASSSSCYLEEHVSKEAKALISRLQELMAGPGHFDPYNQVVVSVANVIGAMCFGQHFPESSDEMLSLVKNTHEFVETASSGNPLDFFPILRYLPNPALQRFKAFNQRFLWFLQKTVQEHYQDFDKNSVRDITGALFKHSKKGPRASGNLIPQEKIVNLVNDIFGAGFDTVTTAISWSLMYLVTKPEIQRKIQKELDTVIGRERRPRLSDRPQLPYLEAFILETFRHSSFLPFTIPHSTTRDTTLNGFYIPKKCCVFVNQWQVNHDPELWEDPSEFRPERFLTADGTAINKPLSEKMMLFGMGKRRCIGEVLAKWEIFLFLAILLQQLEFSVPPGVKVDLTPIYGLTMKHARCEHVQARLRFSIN

Data set [1] concerns the target Photinus pyralis (firefly) luciferase (Photinus pyralis, UniProt P08659). The data set can be described thus: biochemical. Conditions: for IC50: read-out: Luciferase IC50 (half-maximal inhibitory concentration). It counts as biochemical.

Each structure is given as a SMILES string.

CYP3A4, sequence (P08684 whole entry): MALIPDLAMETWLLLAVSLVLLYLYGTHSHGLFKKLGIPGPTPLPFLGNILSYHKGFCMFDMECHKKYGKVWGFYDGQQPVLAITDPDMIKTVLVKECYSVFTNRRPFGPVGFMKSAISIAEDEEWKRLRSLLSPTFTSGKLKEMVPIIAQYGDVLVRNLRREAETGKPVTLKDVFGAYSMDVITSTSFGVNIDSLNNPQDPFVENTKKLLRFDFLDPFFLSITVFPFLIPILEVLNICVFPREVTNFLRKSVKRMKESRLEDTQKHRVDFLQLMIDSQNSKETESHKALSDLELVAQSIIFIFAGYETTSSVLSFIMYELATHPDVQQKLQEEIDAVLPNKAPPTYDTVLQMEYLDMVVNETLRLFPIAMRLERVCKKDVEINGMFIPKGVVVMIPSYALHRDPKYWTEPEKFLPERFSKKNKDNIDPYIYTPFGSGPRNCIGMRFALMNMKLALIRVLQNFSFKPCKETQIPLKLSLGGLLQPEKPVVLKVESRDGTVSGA
Photinus pyralis (firefly) luciferase, sequence (P08659 whole entry): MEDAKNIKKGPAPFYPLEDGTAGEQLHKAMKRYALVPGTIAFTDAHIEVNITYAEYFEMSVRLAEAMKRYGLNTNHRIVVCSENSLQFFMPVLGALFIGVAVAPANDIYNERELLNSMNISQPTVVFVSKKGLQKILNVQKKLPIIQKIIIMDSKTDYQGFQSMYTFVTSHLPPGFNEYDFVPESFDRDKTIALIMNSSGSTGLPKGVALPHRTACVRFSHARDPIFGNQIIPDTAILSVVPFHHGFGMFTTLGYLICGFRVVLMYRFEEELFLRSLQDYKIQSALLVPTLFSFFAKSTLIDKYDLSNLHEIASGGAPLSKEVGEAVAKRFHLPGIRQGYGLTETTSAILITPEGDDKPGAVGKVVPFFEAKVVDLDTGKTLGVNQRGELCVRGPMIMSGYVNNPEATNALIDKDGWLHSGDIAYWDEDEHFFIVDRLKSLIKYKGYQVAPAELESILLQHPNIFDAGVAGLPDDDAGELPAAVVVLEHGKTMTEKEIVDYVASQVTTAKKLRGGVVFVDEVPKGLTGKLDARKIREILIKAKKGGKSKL
human CYP2C19, sequence (P33261 whole entry): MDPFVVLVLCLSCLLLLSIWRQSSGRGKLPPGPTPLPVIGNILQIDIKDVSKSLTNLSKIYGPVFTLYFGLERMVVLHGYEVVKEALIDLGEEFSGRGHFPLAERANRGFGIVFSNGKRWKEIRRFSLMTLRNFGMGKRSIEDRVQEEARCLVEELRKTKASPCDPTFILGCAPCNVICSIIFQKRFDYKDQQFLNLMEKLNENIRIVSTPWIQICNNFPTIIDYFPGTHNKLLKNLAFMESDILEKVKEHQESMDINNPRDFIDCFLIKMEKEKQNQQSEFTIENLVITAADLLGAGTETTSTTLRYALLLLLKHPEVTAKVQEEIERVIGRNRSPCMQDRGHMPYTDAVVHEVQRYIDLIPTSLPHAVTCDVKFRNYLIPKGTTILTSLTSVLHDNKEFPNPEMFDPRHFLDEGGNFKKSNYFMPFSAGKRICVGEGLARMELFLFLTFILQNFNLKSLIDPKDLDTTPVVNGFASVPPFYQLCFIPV
human CYP2D6, sequence (P10635 whole entry): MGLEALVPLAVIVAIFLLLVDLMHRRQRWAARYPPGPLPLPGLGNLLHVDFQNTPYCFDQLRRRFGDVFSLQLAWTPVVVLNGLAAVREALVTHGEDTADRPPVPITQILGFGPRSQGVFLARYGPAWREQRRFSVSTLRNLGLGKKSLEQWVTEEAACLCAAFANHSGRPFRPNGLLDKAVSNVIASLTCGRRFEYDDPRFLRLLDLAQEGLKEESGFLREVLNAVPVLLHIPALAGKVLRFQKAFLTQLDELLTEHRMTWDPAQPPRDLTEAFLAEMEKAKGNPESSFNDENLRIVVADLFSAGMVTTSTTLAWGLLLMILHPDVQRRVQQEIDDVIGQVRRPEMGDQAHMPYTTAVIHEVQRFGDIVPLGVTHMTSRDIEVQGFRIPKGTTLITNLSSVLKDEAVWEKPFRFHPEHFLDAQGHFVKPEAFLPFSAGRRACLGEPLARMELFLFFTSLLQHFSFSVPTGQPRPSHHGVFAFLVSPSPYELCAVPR
human CYP2C9, sequence (P11712 whole entry): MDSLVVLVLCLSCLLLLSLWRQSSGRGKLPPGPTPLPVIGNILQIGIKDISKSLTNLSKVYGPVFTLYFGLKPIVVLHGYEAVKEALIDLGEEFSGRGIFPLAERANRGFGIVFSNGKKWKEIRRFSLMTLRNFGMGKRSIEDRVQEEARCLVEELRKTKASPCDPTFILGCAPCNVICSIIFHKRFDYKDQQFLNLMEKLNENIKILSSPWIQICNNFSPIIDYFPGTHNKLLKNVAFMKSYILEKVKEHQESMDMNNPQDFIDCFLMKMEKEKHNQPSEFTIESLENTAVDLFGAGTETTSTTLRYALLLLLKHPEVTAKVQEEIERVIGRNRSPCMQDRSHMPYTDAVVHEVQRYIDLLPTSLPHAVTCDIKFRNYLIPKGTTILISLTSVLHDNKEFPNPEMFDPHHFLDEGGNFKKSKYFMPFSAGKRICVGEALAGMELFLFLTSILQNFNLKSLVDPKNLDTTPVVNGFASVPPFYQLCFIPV

Consider `COc1cc2c(cc1OC)C(C(C(=O)N(CCc1ccc(OC)c(OC)c1OC)CCc1ccc(OC)c(OC)c1OC)c1ccccc1)=NCC2.Cl` (centres unmarked) [Pinokalant hydrochloride], for which the figures for the IC50 at human CYP1A2, on human CYP2C19 and against CYP3A4 were 37.3 µM, 19.6 µM and 0.57 µM, respectively. In data set [1], the “Luciferase IC50 (half-maximal inhibitory concentration)” value was “Inactive”. In addition, the “CYP2C9 Efficacy” value on human CYP2C9 is reported as 11.86 ± 0.77 (-103 ± 7) %. In addition, the “CYP2D6 Efficacy” value at human CYP2D6 is 9.34 ± 4.19 (-64 ± 10) %.
In the case of `CC(=O)/C=C/c1ccc2c(c1)OCO2` [Piperonal acetone], the IC50 turned out to be 0.25 µM against human CYP1A2, 40.3 µM in data set [1], 14.5 µM against human CYP2C19 and 4.65 µM at CYP3A4. Besides, the “CYP2C9 Efficacy” value at human CYP2C9 is 8.04 ± 0.92 (-118 ± 10) %. Besides, the “CYP2D6 Efficacy” value at human CYP2D6 is 31 ± 5.28 (-103 ± 9) %.
With `CC(=O)CCc1ccc2c(c1)OCO2` [Piperonyl acetone], the IC50 is 0.75 µM at human CYP1A2, 29.9 µM against human CYP2C19 and 18.5 µM against CYP3A4. The “Luciferase IC50 (half-maximal inhibitory concentration)” value in data set [1] is reported as “Inactive”. Moreover, the “CYP2C9 Efficacy” value at human CYP2C9 is reported as 22.26 ± 9.54 (-102 ± 10) %. The “CYP2D6 Efficacy” value on human CYP2D6 is 44.96 ± 16.37 (-42 ± 9) %.
As for `O=C(NCc1cccnc1)Nc1ccc([N+](=O)[O-])cc1` [Pyrinuron], on human CYP1A2, the “CYP1A2 Efficacy (in parenthesis)” value was 15.45 ± 2.63 (-100 ± 0) % and the IC50 worked out at 15.5 µM. In addition, the “Luciferase IC50 (half-maximal inhibitory concentration)” value in data set [1] is “Inactive”. At human CYP2C19, the “CYP2C19 Efficacy (in parenthesis)” value is 3.28 ± 1.56 (-135 ± 13) % and the IC50 worked out at 3.28 µM. At human CYP2C9, the “CYP2C9 Efficacy (in parenthesis)” value is reported as 5.43 ± 0.35 (-105 ± 9) % and the IC50 turned out to be 5.43 µM. Also, at human CYP2D6, the “CYP2D6 Efficacy (in parenthesis)” value is 44.8 ± 15.98 (-64 ± 3) % and the IC50 is 44.8 µM. On CYP3A4, the “CYP3A4 Efficacy (in parenthesis)” value is reported as 0.93 ± 0.12 (-76 ± 5) % and the IC50 worked out at 0.93 µM.
For the molecule `C[C@@H]1CN(CCCn2c3ccccc3c3ccccc32)C[C@H](C)N1.Cl.Cl` [Rimcazole dihydrochloride], the IC50 at human CYP1A2 was found to be 10.6 µM; against CYP3A4, 1.84 µM. Moreover, in data set [1], the “Luciferase IC50” value is recorded as “Inactive”. Also, the “CYP2C19 IC50” value at human CYP2C19 is “Inactive”. Moreover, the “CYP2C9 IC50” value at human CYP2C9 was “Inactive”. For the same molecule, at human CYP2D6, the “CYP2D6 Efficacy” value was 0.4 ± 0.03 (-102 ± 4) %.
For `Cn1ccc2cc3c(cc21)CCN3C(=O)Nc1cccnc1` [SB-206553], on human CYP1A2, the “CYP1A2 Efficacy (in parenthesis)” value is 0.07 ± 0.01 (-96 ± 6) % and the IC50 worked out at 0.07 µM. In data set [1], the “Luciferase Efficacy (in parenthesis)” value is on record as 4.77 ± 1.70 (-73 ± 12) % and the IC50 turned out to be 4.77 µM. Also, the “CYP2C19 IC50 (half-maximal inhibitory concentration)” value at human CYP2C19 was “Inactive”. In addition, the “CYP2C9 IC50 (half-maximal inhibitory concentration)” value on human CYP2C9 was “Inactive”. In addition, the “CYP2D6 IC50 (half-maximal inhibitory concentration)” value on human CYP2D6 was “Inactive”. Moreover, on CYP3A4, the “CYP3A4 Efficacy (in parenthesis)” value was 3.55 ± 0.64 (-82 ± 5) % and the IC50 came out at 3.55 µM.
With `COc1cccc(CCc2ccccc2OCC(CN(C)C)OC(=O)CCC(=O)O)c1.Cl` (centres unmarked) [Sarpogrelate hydrochloride], the IC50 against human CYP1A2 came to 16.2 µM; against human CYP2C19, 36.8 µM; at CYP3A4 it was 6.72 µM. In addition, the “Luciferase IC50 (half-maximal inhibitory concentration)” value in data set [1] is listed as “Inactive”. Also, the “CYP2C9 IC50 (half-maximal inhibitory concentration)” value at human CYP2C9 is on record as “Inactive”. The “CYP2D6 Efficacy” value on human CYP2D6 is 0.42 ± 0.24 (-101 ± 2) %.
Consider `CC(C)CC(N(C)C)C1(c2ccc(Cl)cc2)CCC1.Cl` (centres unmarked) [Sibutramine hydrochloride], for which the “CYP1A2 IC50 (half-maximal inhibitory concentration)” value at human CYP1A2 was “Inactive”. Besides, in data set [1], the “Luciferase IC50 (half-maximal inhibitory concentration)” value was “Inactive”. Further, on human CYP2C19, the “CYP2C19 Efficacy (in parenthesis)” value is reported as 8.47 ± 1.44 (-127 ± 8) % and the IC50 worked out at 8.47 µM. For the same molecule, at human CYP2C9, the “CYP2C9 IC50 (half-maximal inhibitory concentration)” value was “Inactive”. In addition, at human CYP2D6, the “CYP2D6 Efficacy (in parenthesis)” value was 4.24 ± 0.72 (-88 ± 6) % and the IC50 stood at 4.24 µM. Also, at CYP3A4, the “CYP3A4 Efficacy (in parenthesis)” value is on record as 0.94 ± 0.06 (-73 ± 3) % and the IC50 is 0.94 µM.
